Measurements taken from the supplement of paper PMC10307832.

Assays:
Test in all cases: relative viability (nuclei count vs DMSO), 5 days (fraction); higher = more cells survive
[1] = compound: CC(C)(C)c1nc(-c2cccc(NS(=O)(=O)c3c(F)cccc3F)c2F)c(-c2ccnc(N)n2)s1 [Dabrafenib] + Nc1nc2[nH]cc(CCc3ccc(C(=O)N[C@@H](CCC(=O)O)C(=O)O)cc3)c2c(=O)[nH]1 [Pemetrexed] (partner 0.2 µM)
Procedure, shortened: (§1)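 Lung cancer cell lines were seeded in 1536-well plates and dosed by pin tool the next day, with either a single drug or a fixed anchor-drug dose combined with five library-drug doses (not always all listed) spaced in √10 steps. Five days later, one step fixed the cells and stained their nuclei (final 0.05% Triton X-100, 1% formaldehyde, 1 ug/ml Hoechst), and nuclei were counted on 4× images. Relative viability is the nuclei count in treated wells divided by the count in vehicle wells, and each value is the median of duplicate plates.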

[2] = compound: NC(=O)c1ccc(N(C(N)=O)c2c(F)cccc2F)nc1-c1ccc(F)cc1F [VX-702] + CC(=O)Nc1cccc(-n2c(=O)n(C3CC3)c(=O)c3c(Nc4ccc(I)cc4F)n(C)c(=O)c(C)c32)c1 [Trametinib] (partner 0.02 µM)
Procedure, shortened: as §1

[3] = compound: NC(=O)c1ccc(N(C(N)=O)c2c(F)cccc2F)nc1-c1ccc(F)cc1F [VX-702] + COc1cc2c(Oc3ccc(NC(=O)C4(C(=O)Nc5ccc(F)cc5)CC4)cc3F)ccnc2cc1OCCCN1CCOCC1 [Foretinib] (partner 0.25 µM)
Procedure, shortened: as §1

[4] = compound: NC(=O)c1ccc(N(C(N)=O)c2c(F)cccc2F)nc1-c1ccc(F)cc1F [VX-702] + Nc1nc2[nH]cc(CCc3ccc(C(=O)N[C@@H](CCC(=O)O)C(=O)O)cc3)c2c(=O)[nH]1 [Pemetrexed] (partner 0.2 µM)
Procedure, shortened: as §1

Cell Line | relative viability ([1]; first compound 0.003 µM) | relative viability ([1]; first compound 0.009487 µM) | relative viability ([1]; first compound 0.03 µM) | relative viability ([1]; first compound 0.09487 µM) | relative viability ([1]; first compound 0.3 µM) | relative viability ([2]; first compound 0.02 µM) | relative viability ([2]; first compound 0.2 µM) | relative viability ([2]; first compound 0.6325 µM) | relative viability ([2]; first compound 2 µM) | relative viability ([3]; first compound 0.02 µM) | relative viability ([3]; first compound 0.2 µM) | relative viability ([3]; first compound 0.6325 µM) | relative viability ([3]; first compound 2 µM) | relative viability ([4]; first compound 0.02 µM) | relative viability ([4]; first compound 0.2 µM) | relative viability ([4]; first compound 0.6325 µM) | relative viability ([4]; first compound 2 µM)
LC-2-ad | 0.271 | 0.283 | 0.25 | 0.269 | 0.286 | 0.948 | 0.916 | 0.921 | 0.97 | 0.765 | 0.958 | 0.838 | 0.99 | 0.275 | 0.271 | 0.269 | 0.274
LCLC-97TM1 |  | 0.198 | 0.198 | 0.124 | 0.139 | 0.197 | 0.192 | 0.185 | 0.202 | 0.836 | 0.923 | 0.938 | 0.991 | 0.167 | 0.171 | 0.141 | 0.193
LCLC-103H | 0.473 | 0.455 | 0.532 | 0.42 | 0.4 | 0.723 | 0.743 | 0.665 | 0.711 | 0.71 | 0.702 | 0.534 | 0.881 | 0.503 | 0.445 | 0.469 | 0.469
LK-2 | 0.249 | 0.239 |  | 0.253 | 0.301 | 0.591 | 0.696 | 0.568 | 0.788 | 0.985 | 1.21 | 1.08 | 1.11 | 0.277 | 0.272 | 0.236 | 0.247
LOU-NH91 |  | 0.34 | 0.403 | 0.409 | 0.409 | 0.828 | 0.763 | 0.768 | 0.743 | 0.94 | 0.973 | 0.994 | 0.704 | 0.383 | 0.366 | 0.385 | 0.412
LU99A | 0.25 | 0.192 | 0.181 | 0.161 | 0.183 | 0.563 | 0.532 | 0.512 | 0.5 | 0.871 | 0.677 | 0.786 | 0.721 | 0.173 | 0.164 | 0.184 | 0.16
LXF-289 | 0.751 | 0.872 | 0.965 | 0.813 | 1.08 | 0.718 | 0.648 | 0.691 | 0.703 | 1.04 | 0.962 | 0.958 | 0.98 | 0.935 | 0.894 | 0.9 | 0.947
NCI-H23 |  | 0.67 | 0.504 | 0.7 | 0.597 | 0.4 | 0.411 | 0.392 | 0.413 | 0.961 | 1.03 | 1.15 | 1.21 | 0.655 | 0.654 | 0.714 | 0.774
NCI-H322M |  | 0.711 |  | 0.602 | 0.572 | 0.543 | 0.499 | 0.518 | 0.613 | 0.964 | 0.875 | 0.932 | 1 | 0.61 | 0.611 | 0.633 | 0.578
NCI-H358 | 0.169 | 0.166 | 0.152 | 0.209 | 0.163 | 0.147 | 0.143 | 0.126 | 0.143 | 0.692 | 0.598 | 0.663 | 0.936 | 0.176 | 0.172 | 0.168 | 0.173
